Test results from ChEMBL document CHEMBL5303573, “Mapping human microbiome drug metabolism by gut bacteria and their genes” (Nature, 2019).

Tests used:
[1] = The drug is tested on Edwardsiella tarda strain: ATCC23685 for biotransformation. The drug concentrations were measured before and after a 12-h incubation by liquid-chromatography-coupled mass spectrometry (LC–MS); details: 2 µM
[2] = The drug is tested on Clostridium scindens strain: ATCC35704 for biotransformation. The drug concentrations were measured before and after a 12-h incubation by liquid-chromatography-coupled mass spectrometry (LC–MS); details: 2 µM
[3] = bacteroides thetaiotaomicron, 12 h, 2 µM
Description: The drug is tested on Bacteroides thetaiotaomicron strain: 7330 for biotransformation. The drug concentrations were measured before and after a 12-h incubation by liquid-chromatography-coupled mass spectrometry (LC–MS)

[4] = The drug is tested on Bacteroides vulgatus strain: ATCC8482 for biotransformation. The drug concentrations were measured before and after a 12-h incubation by liquid-chromatography-coupled mass spectrometry (LC–MS); details: phocaeicola vulgatus, 2 µM
[5] = bacteroides fragilis, 12 h, 2 µM
Description: The drug is tested on Bacteroides fragilis strain: DS-208 for biotransformation. The drug concentrations were measured before and after a 12-h incubation by liquid-chromatography-coupled mass spectrometry (LC–MS)

[6] = The drug is tested on Dorea formicigenerans strain: ATCC27755 for biotransformation. The drug concentrations were measured before and after a 12-h incubation by liquid-chromatography-coupled mass spectrometry (LC–MS); details: 2 µM
[7] = bacteroides stercoris, 12 h, 2 µM
Description: The drug is tested on Bacteroides stercoris strain: ATCC43183 for biotransformation. The drug concentrations were measured before and after a 12-h incubation by liquid-chromatography-coupled mass spectrometry (LC–MS)

[8] = The drug is tested on Enterococcus faecalis strain: V583 for biotransformation. The drug concentrations were measured before and after a 12-h incubation by liquid-chromatography-coupled mass spectrometry (LC–MS); details: 2 µM
[9] = The drug is tested on Ruminococcus gnavus strain: ATCC29149 for biotransformation. The drug concentrations were measured before and after a 12-h incubation by liquid-chromatography-coupled mass spectrometry (LC–MS); details: mediterraneibacter gnavus, 2 µM
[10] = The drug is tested on Collinsella aerofaciens strain: ATCC25986 for biotransformation. The drug concentrations were measured before and after a 12-h incubation by liquid-chromatography-coupled mass spectrometry (LC–MS); details: 2 µM
[11] = limosilactobacillus reuteri cf48-3a, 12 h, 2 µM
Description: The drug is tested on Lactobacillus reuteri CF48-3A strain: BEI HM-102 for biotransformation. The drug concentrations were measured before and after a 12-h incubation by liquid-chromatography-coupled mass spectrometry (LC–MS)

[12] = The drug is tested on Bacteroides caccae strain: ATCC43185 for biotransformation. The drug concentrations were measured before and after a 12-h incubation by liquid-chromatography-coupled mass spectrometry (LC–MS); details: 2 µM
[13] = parabacteroides johnsonii, 12 h, 2 µM
Description: The drug is tested on Parabacteroides johnsonii strain: DSM18315 for biotransformation. The drug concentrations were measured before and after a 12-h incubation by liquid-chromatography-coupled mass spectrometry (LC–MS)

[14] = The drug is tested on Bacteroides finegoldii strain: DSM17565 for biotransformation. The drug concentrations were measured before and after a 12-h incubation by liquid-chromatography-coupled mass spectrometry (LC–MS); details: 2 µM
[15] = The drug is tested on Bacteroides sp. WH2 strain: WH2 for biotransformation. The drug concentrations were measured before and after a 12-h incubation by liquid-chromatography-coupled mass spectrometry (LC–MS); details: bacteroides sp. wh2, 12 h, 2 µM
[16] = The drug is tested on Odoribacter splanchnicus strain: fecal isolate for biotransformation. The drug concentrations were measured before and after a 12-h incubation by liquid-chromatography-coupled mass spectrometry (LC–MS); details: 2 µM
[17] = The drug is tested on Bacteroides ovatus strain: ATCC8483 for biotransformation. The drug concentrations were measured before and after a 12-h incubation by liquid-chromatography-coupled mass spectrometry (LC–MS); details: 2 µM
[18] = bacteroides thetaiotaomicron, 12 h, 2 µM; remark: listed apart in the source
Description: The drug is tested on Bacteroides thetaiotaomicron strain: VPI-5482 for biotransformation. The drug concentrations were measured before and after a 12-h incubation by liquid-chromatography-coupled mass spectrometry (LC–MS)

[19] = The drug is tested on Bifidobacterium breve strain: DSM20213 for biotransformation. The drug concentrations were measured before and after a 12-h incubation by liquid-chromatography-coupled mass spectrometry (LC–MS); details: 2 µM

Row | SMILES | Bacterial Biotransformation [1] | Bacterial Biotransformation [2] | Bacterial Biotransformation [3] | Bacterial Biotransformation [4] | Bacterial Biotransformation [5] | Bacterial Biotransformation [6] | Bacterial Biotransformation [7] | Bacterial Biotransformation [8] | Bacterial Biotransformation [9] | Bacterial Biotransformation [10] | Bacterial Biotransformation [11] | Bacterial Biotransformation [12] | Bacterial Biotransformation [13] | Bacterial Biotransformation [14] | Bacterial Biotransformation [15] | Bacterial Biotransformation [16] | Bacterial Biotransformation [17] | Bacterial Biotransformation [18] | Bacterial Biotransformation [19]
1 | C[C@]12CCC(=O)C=C1[C@@H]1C[C@@H]1[C@H]1[C@@H]3[C@@H]4C[C@@H]4[C@@]4(CCC(=O)O4)[C@@]3(C)CC[C@@H]12 [DROSPIRENONE] | Compound NOT metabolized | Compound NOT metabolized | Compound NOT metabolized | Compound metabolized | Compound NOT metabolized | Compound NOT metabolized | Compound NOT metabolized | Compound NOT metabolized | Compound metabolized | Compound NOT metabolized | Compound NOT metabolized | Compound NOT metabolized | Compound metabolized | Compound NOT metabolized | Compound NOT metabolized | Compound metabolized |  |  | 
2 | C[C@@H](CO)NC(=O)[C@@H]1C=C2c3cccc4[nH]cc(c34)C[C@H]2N(C)C1.O=C(O)/C=C\C(=O)O [ERGONOVINE MALEATE] | Compound NOT metabolized | Compound metabolized | Compound metabolized | Compound metabolized | Compound metabolized | Compound metabolized | Compound NOT metabolized | Compound NOT metabolized |  | Compound metabolized | Compound metabolized |  | Compound metabolized | Compound NOT metabolized | Compound metabolized | Compound metabolized | Compound metabolized | Compound metabolized | 
3 | NC(CO)(CO)CO.O=C(c1ccccc1)c1ccc2n1CCC2C(=O)O (configuration not stated) [KETOROLAC TROMETHAMINE] |  | Compound NOT metabolized |  | Compound metabolized | Compound metabolized | Compound NOT metabolized |  | Compound NOT metabolized | Compound metabolized | Compound NOT metabolized | Compound NOT metabolized | Compound NOT metabolized | Compound NOT metabolized |  | Compound NOT metabolized | Compound NOT metabolized |  | Compound metabolized | 
4 | O=C1N=C([O-])NC1(c1ccccc1)c1ccccc1.[Na+] [PHENYTOIN SODIUM] |  | Compound NOT metabolized |  | Compound metabolized | Compound NOT metabolized | Compound NOT metabolized | Compound NOT metabolized | Compound NOT metabolized | Compound NOT metabolized | Compound metabolized | Compound NOT metabolized |  | Compound metabolized | Compound NOT metabolized | Compound metabolized | Compound metabolized | Compound metabolized | Compound NOT metabolized | Compound NOT metabolized
5 | CCN(C)C(=O)Oc1cccc([C@H](C)N(C)C)c1.O=C(O)C(O)C(O)C(=O)O [RIVASTIGMINE TARTRATE] | Compound NOT metabolized | Compound NOT metabolized |  |  | Compound NOT metabolized | Compound NOT metabolized | Compound NOT metabolized | Compound NOT metabolized | Compound NOT metabolized | Compound NOT metabolized | Compound NOT metabolized | Compound NOT metabolized | Compound NOT metabolized | Compound NOT metabolized | Compound NOT metabolized | Compound NOT metabolized |  | Compound NOT metabolized | Compound NOT metabolized
6 | CCCN(CCC)CCc1cccc2c1CC(=O)N2 [ROPINIROLE] | Compound NOT metabolized | Compound NOT metabolized | Compound NOT metabolized | Compound NOT metabolized | Compound NOT metabolized | Compound NOT metabolized | Compound NOT metabolized | Compound NOT metabolized | Compound NOT metabolized | Compound NOT metabolized | Compound NOT metabolized |  | Compound NOT metabolized | Compound NOT metabolized | Compound NOT metabolized |  | Compound NOT metabolized |  | Compound NOT metabolized
7 | O=c1n(CCCN2CCN(c3cccc(Cl)c3)CC2)nc2ccccn12 [TRAZODONE] | Compound NOT metabolized | Compound NOT metabolized | Compound NOT metabolized | Compound NOT metabolized | Compound NOT metabolized | Compound NOT metabolized | Compound NOT metabolized | Compound NOT metabolized |  | Compound NOT metabolized | Compound NOT metabolized | Compound NOT metabolized | Compound NOT metabolized | Compound NOT metabolized | Compound NOT metabolized |  | Compound NOT metabolized | Compound NOT metabolized | Compound NOT metabolized
8 | Cc1cn([C@H]2C[C@H](N=[N+]=[N-])[C@@H](CO)O2)c(=O)[nH]c1=O [ZIDOVUDINE] | Compound NOT metabolized | Compound NOT metabolized | Compound NOT metabolized | Compound metabolized |  |  | Compound metabolized | Compound NOT metabolized |  |  | Compound NOT metabolized | Compound NOT metabolized | Compound metabolized | Compound NOT metabolized | Compound NOT metabolized | Compound NOT metabolized | Compound NOT metabolized | Compound NOT metabolized | Compound NOT metabolized
9 | CS(=O)(=O)O.O.O.O.O=C1Cc2cc(CCN3CCN(c4nsc5ccccc45)CC3)c(Cl)cc2N1 [ZIPRASIDONE MESYLATE] | Compound NOT metabolized | Compound NOT metabolized | Compound NOT metabolized | Compound metabolized | Compound NOT metabolized | Compound NOT metabolized | Compound NOT metabolized | Compound NOT metabolized | Compound NOT metabolized | Compound NOT metabolized | Compound NOT metabolized | Compound NOT metabolized | Compound NOT metabolized | Compound NOT metabolized |  |  | Compound metabolized | Compound NOT metabolized | Compound NOT metabolized
